Data on five substances can be found in patent US7307063B2, “Melanocortin metallopeptides for treatment of sexual dysfunction” (Palatin Technologies, Inc., priority 2001, dated 2007).

Test [1] concerns Male Sprague-Dawley rats. The experiment in a line: Combination penile erection behavior studies: antagonist IV before IN agonist.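 For Mean Penile Erections/Rat: Erections counted over 30 min observation after IN dosing.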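 For Percent with Penile Erections: Erections counted over 30 min observation after IN dosing.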 It counts as in vivo, rat. The procedure: Conditions were as in Example 3 except as noted. Groups of 5-6 rats received an IV dose of either placebo or antagonist 5 minutes prior to an IN dose of either placebo or agonist. Two antagonists were used: ReO[Heptanoyl-Ser(Bzl)-D-Nal 2′-Arg-Trp-Cys-NH2] and SHU9119 (Hruby V J, Lu D, Sharma S D, et al. J Med Chem 38:3454-3461 (1995)), Ac-Nle-cyclo(-Asp-His-D-Nal 2′-Arg-Trp-Lys)-NH2. The agonist used was Ac-Nle-cyclo(-Asp-His-D-Phe-Arg-Trp-Lys)-OH. Immediately after IN treatment, rats were placed into individual Lucite cages for observation. […] In combination studies, the antagonist was dosed IV 5 minutes prior to a 50 μg/kg IN dose of Ac-Nle-cyclo(-Asp-His-D-Phe-Arg-Trp-Lys)-OH.
These studies were conducted as described above in Example 4 with metallopeptide antagonists administered IV five minutes before IN administration of 50 μg/kg Ac-Nle-cyclo(-Asp-His-D-Phe-Arg-Trp-Lys)-OH. […] The potency of these antagonists also correlated with their relative binding affinities in the in vitro binding assays.

The target of test [2] is T1, MC1-R (Mus musculus, UniProt Q01727).
T1 construct: MC1-R membranes were isolated from B16—F10 mouse melanoma cells; endogenous in cells; host or cells: B16-F10 mouse melanoma cells
In words: Competitive binding assay: inhibition of 125I-NDP-α-MSH binding to membranes from B16-F10 mouse melanoma cells. An outline of the steps:
(§1)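 Membranes were incubated with 125I-NDP-α-MSH and a chosen concentration of Re-complexed peptide. Bound radioactivity was then measured, with 1 μM α-MSH defining complete inhibition. Finally, cpm were normalized against specific binding to yield percent inhibition.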

Test [3] addresses T2, MC4-R (Homo sapiens, UniProt P32245).
T2 construct: expressed in transfected cells; host or cells: HEK-293
In words: Functional activity assay: intracellular cAMP in HEK-293 cells expressing MC4-R. To be noted: Re-complexed peptide. Format: cell-based. The method, then:
Rhenium-complexed metallopeptides were prepared, with functional evaluation of peptides at MC1-R and MC4-R performed by measuring the accumulation of intracellular cAMP in HEK-293 cells expressing MC4-R or B16-F10 mouse melanoma cells expressing MC1-R. Antagonistic activity was determined by measuring the inhibition of α-MSH-induced cAMP levels following exposure to peptide. Cells, suspended in Earle's Balanced Salt Solution containing 10 mM HEPES, pH 7.5, 5 mM MgCl2, 1 mM glutamine, 0.1% albumin and 0.6 mM 3-isobutyl-1-methyl-xanthine, a phosphodiesterase inhibitor, were plated in 96 well plates at a density of 0.5×10^5 cells per well. Cells were incubated with the test peptides in the presence or absence of α-MSH for 1 hour at 37° C. cAMP levels were measured by EIA (Amersham) in the cell lysates. Data analysis and EC50 values were determined using nonlinear regression analysis with Prism Graph-Pad software.

Test [4] addresses T2, MC4-R. The experiment in a line: Competitive binding assay: inhibition of 125I-NDP-α-MSH binding to HEK-293 membranes with cloned human receptor subtype 4. An outline of the steps: as §1
The target of test [5] is T3, hMC5-R (Homo sapiens, UniProt P33032).
T3 construct: expressed in transfected cells; host or cells: HEK-293
The experiment in a line: Competitive binding assay: inhibition of 125I-NDP-α-MSH binding to HEK-293 membranes with cloned human receptor subtype 5. The gist of the method: as §1

In test [6] the test system is Male Sprague-Dawley rats. In words: Penile erection behavior dose response animal studies. It counts as in vivo, rat. Conditions: for Mean Penile Erections/Rat: IV 150 μg/kg, 30 min observation; for Induction of penile erections (PEs) in rat model, in words: rats, IV. The procedure: For behavioral experiments test solutions of rhenium-complexed metallopeptides were freshly prepared in DMSO and diluted in saline. Male Sprague-Dawley rats (Taconic) weighing 200-250 g were kept on a 12 hour on/off light cycle with food and water ad libitum. All behavioral studies were performed between 10 a.m. and 5 p.m. Groups of 3-10 rats were treated with the rhenium-complexed metallopeptides at a variety of doses via intravenous (IV) injection. In a second experimental paradigm, rats were treated a selected compound intranasally (IN) using a micropipet to deliver 25 μl of solution into one nostril. Immediately after treatment, rats were placed into individual Lucite cages (27 cm long, 16 cm wide and 25 cm high) for behavioral observation.

For test [7], the system named is Male Sprague-Dawley rats. In words: Combination penile erection behavior studies: antagonist IV before IN agonist.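 For Mean Penile Erections/Rat: Erections counted over 30 min observation after IN dosing.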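 For Percent with Penile Erections: Erections counted over 30 min observation after IN dosing.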 It counts as in vivo, rat. To be noted: effect induced by 50 µg/kg intranasal Ac-Nle-cyclo(-Asp-His-D-Phe-Arg-Trp-Lys)-OH.
The target in test [8] is T4, hMC3-R (Homo sapiens, UniProt P41968).
T4 construct: expressed in transfected cells; host or cells: HEK-293
In words: Competitive binding assay: inhibition of 125I-NDP-α-MSH binding to HEK-293 membranes with cloned human receptor subtype 3. To be noted: Table 1; 1 μM Re-complexed peptide. The procedure: Rhenium-complexed metallopeptides of the formulas given in Table 1 were prepared, with the metallopeptides complexed with rhenium using the rhenium transfer agent ReOCl3(PPh3)2 in the presence of 1,8-Diazabicyclo[5,4,0] undec-7-ene as a base, as disclosed in International Application PCT/US00/16396, filed Jun. 14, 2000, Melanocortin Metallopeptide Constructs, Combinatorial Libraries and Applications, incorporated by reference herein. Affinities of compounds were measured using membranes from HEK-293 cells containing cloned human melanocortin receptor subtypes 3, 4 and 5. MC1-R membranes were isolated from B16—F10 mouse melanoma cells. The assay tube also contained a chosen concentration of the test peptide of this invention, complexed to a rhenium metal ion as indicated, for determining its efficacy in inhibiting the binding of ^125I-NDP-α-MSH to its receptor. Non-specific binding was measured by complete inhibition of binding of ^125I-NDP-α-MSH in the assay with the presence of 1 μM α-MSH. 100% specific binding was defined as the difference in radioactivity (cpm) bound to cell membranes in the absence and presence of 1 μM α-MSH. The cpm obtained in presence of test compounds were normalized with respect to 100% specific binding to determine the percent inhibition of ^125I-NDP-α-MSH binding.

The target of test [9] is T5, hMC2-R (Homo sapiens, UniProt P41968).
T5 construct: expressed in transfected cells; host or cells: HEK-293
In words: Competitive binding assay of additional compounds, Table 6 hMC2-R. Conditions: 1 μM, mean of triplicate.

[10] abbreviates: agonist alone 50 μg/kg IN, arm of the ReO[Heptanoyl-Ser(Bzl)-D-Nal 2′-Arg-Trp-Cys-NH2] study.
[11] abbreviates: agonist alone 50 μg/kg IN, arm of the SHU9119 study.
Setting [12] is: Table 1, 1 μM Re-complexed peptide.
Where [13] appears, read: combination: antagonist 200 μg/kg IV 5 min prior to 50 μg/kg IN Ac-Nle-cyclo(-Asp-His-D-Phe-Arg-Trp-Lys)-OH.
[14] abbreviates: Table 6, 1 μM, mean of triplicate.

T2 sequence (P32245 whole entry): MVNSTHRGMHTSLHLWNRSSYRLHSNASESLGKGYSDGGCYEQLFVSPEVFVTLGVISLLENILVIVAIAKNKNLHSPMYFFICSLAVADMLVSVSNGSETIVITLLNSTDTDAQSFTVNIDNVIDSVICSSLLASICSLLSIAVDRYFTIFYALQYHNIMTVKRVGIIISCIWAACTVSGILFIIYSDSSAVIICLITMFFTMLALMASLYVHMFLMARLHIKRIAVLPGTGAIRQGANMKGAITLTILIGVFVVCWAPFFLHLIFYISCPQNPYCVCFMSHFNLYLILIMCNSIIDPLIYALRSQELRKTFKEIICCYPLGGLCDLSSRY
T4 sequence (P41968 whole entry): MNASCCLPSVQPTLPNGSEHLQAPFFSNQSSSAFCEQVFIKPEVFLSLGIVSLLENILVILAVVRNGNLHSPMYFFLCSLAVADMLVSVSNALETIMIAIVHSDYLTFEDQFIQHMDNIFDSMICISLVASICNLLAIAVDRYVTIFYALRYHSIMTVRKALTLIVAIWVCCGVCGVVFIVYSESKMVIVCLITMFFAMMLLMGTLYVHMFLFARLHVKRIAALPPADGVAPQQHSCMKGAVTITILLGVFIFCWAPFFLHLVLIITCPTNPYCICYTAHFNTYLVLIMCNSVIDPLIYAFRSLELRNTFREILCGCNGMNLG
T3 sequence (P33032 whole entry): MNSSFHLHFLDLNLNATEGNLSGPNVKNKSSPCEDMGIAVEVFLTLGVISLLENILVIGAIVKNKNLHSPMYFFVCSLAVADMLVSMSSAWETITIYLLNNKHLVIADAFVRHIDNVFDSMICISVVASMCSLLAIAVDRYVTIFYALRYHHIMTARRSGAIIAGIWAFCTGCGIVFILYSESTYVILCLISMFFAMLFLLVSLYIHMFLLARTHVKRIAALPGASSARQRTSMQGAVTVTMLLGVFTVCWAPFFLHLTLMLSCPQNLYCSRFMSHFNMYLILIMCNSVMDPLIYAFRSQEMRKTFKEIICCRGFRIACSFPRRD
T1 sequence (Q01727 whole entry): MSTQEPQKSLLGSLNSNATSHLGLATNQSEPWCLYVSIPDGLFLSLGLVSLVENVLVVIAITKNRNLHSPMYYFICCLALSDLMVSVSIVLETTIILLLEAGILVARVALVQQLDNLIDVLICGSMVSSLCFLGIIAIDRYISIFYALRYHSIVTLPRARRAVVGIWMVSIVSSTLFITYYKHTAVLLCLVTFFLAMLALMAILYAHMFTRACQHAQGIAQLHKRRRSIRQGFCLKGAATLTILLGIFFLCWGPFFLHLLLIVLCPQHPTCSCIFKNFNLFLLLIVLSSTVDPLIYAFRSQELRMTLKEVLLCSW
T5 sequence (P41968 whole entry): as the sequence (P41968 whole entry) above

As to “Ac-Nle-cyclo(-Asp-His-D-Phe-Arg-Trp-Lys)-OH”, in test [1] (setting [10]), the “Mean Penile Erections/Rat” value is on record as 1.2 ± 0.3 and the “Percent with Penile Erections” value is 83%. In addition, in test [1] (setting [11]), the “Mean Penile Erections/Rat” value was determined as 1.6 ± 0.2 and the “Percent with Penile Erections” value turned out to be 100%.
Take D-(N-Bzl)Nal 2′-Arg-Trp-Cys-NH2: in test [2] (setting [12]), the “% Inhibition of Binding MC1-R” value worked out at 34%. Besides, the “Functional activity at MC4-R (cAMP accumulation; inhibition of α-MSH-induced cAMP)” value in test [3] was “MC4-R antagonists”. The “% Inhibition of Binding hMC4-R” value in [4] (setting [12]) was 99%. In addition, the “% Inhibition of Binding hMC5-R” value in test [5] (setting [12]) is reported as 95%. Also, in [6], the “Mean Penile Erections/Rat” value is 0 and the “Induction of penile erections (PEs) in rat model, in words” value (shortened to “Induction of penile erections (PEs)”) was “inactive in inducing PEs”. Moreover, in [7] (antagonist 100 μg/kg IV), the “Percent PE Inhibition” value is listed as 14.28%. Also, the “Percent PE Inhibition” value in test [7] (antagonist 150 μg/kg IV) worked out at 100%. Moreover, the “% Inhibition of Binding hMC3-R” value in test [8] turned out to be 51%.
On to “Heptanoyl-Ser(Bzl)-D-Nal 2′-Arg-D-Trp-Cys-NH2”, for which, in [2] (setting [12]), the “% Inhibition of Binding MC1-R” value was found to be 1%. For the same substance, the “Functional activity at MC4-R (cAMP accumulation; inhibition of α-MSH-induced cAMP)” value in test [3] is “MC4-R antagonists”. Moreover, the “% Inhibition of Binding hMC4-R” value in test [4] (setting [12]) is on record as 66%. For the same substance, the “% Inhibition of Binding hMC5-R” value in test [5] (setting [12]) was determined as 60%. For the same substance, in test [6], the “Mean Penile Erections/Rat” value was 0. Besides, in test [6], the “Induction of penile erections (PEs)” value was “inactive in inducing PEs”. Also, the “Percent PE Inhibition” value is recorded as 50% in test [7] (antagonist 200 μg/kg IV) and 40% in test [7] (antagonist 500 μg/kg IV). Moreover, in test [8], the “% Inhibition of Binding hMC3-R” value is given as 6%.
Take “Heptanoyl-Ser(Bzl)-D-Nal 2′-Arg-Trp-Cys-NH2”: the “% Inhibition of Binding MC1-R” value in test [2] (setting [12]) is 19%. For the same substance, the “Functional activity at MC4-R (cAMP accumulation; inhibition of α-MSH-induced cAMP)” value in [3] is given as “MC4-R antagonists”. The “% Inhibition of Binding hMC4-R” value in [4] (setting [12]) stood at 97%. Also, the “% Inhibition of Binding hMC5-R” value in test [5] (setting [12]) is 98%. The “Mean Penile Erections/Rat” value came out at 0 in [6]; 0 in test [1] (antagonist alone, 200 μg/kg IV); 0 in test [1] (setting [13]). For the same substance, in test [6], the “Induction of penile erections (PEs)” value was “inactive in inducing PEs”. In addition, the “Percent PE Inhibition” value in test [7] (antagonist 100 μg/kg IV) worked out at 14.28%; in [7] (antagonist 150 μg/kg IV), 50%; in [7] (antagonist 200 μg/kg IV), 100%. Further, the “Inhibitory effect on agonist-induced PE response, in words” value in [1] (IV 0, 100, 150 and 200 μg/kg, FIG. 8) is listed as “increased with dose”. In addition, the “Percent with Penile Erections” value in [1] (antagonist alone, 200 μg/kg IV) is 0%; in [1] (setting [13]) it was 0%. In test [1] (rats, antagonist IV before IN agonist), the “Effect on erectile behavior induced by Ac-Nle-cyclo(-Asp-His-D-Phe-Arg-Trp-Lys)-OH, in words” value is on record as “blocked”. The “% Inhibition of Binding hMC3-R” value in [8] is on record as 64%.
Regarding “NH2(CH2)6CO-Ser(Bzl)-D-Nal 2′-Arg-D-Trp-Cys-NH2”, in [9], the “% Inhibition of Binding hMC2-R” value is 58%. Further, the “% Inhibition of Binding MC1-R” value in test [2] (setting [14]) came out at 6%. Further, the “Functional activity at MC4-R (cAMP accumulation; inhibition of α-MSH-induced cAMP)” value in test [3] is “MC4-R antagonists”. Also, in test [4] (setting [14]), the “% Inhibition of Binding hMC4-R” value was 92%. The “% Inhibition of Binding hMC5-R” value in [5] (setting [14]) stood at 83%.
